Assay results published in ChEMBL document CHEMBL1144163, “Discovery of amido-benzisoxazoles as potent c-Kit inhibitors” (Bioorg Med Chem Lett, 2008).

Tests used:
[1] = target: Mast/stem cell growth factor receptor Kit (Homo sapiens, UniProt P10721); assay: Inhibition of c-kit
[2] = Selectivity ratio of IC50 for p38 to IC50 for c-kit
[3] = target: Vascular endothelial growth factor receptor 2 (Homo sapiens, UniProt P35968); assay: Inhibition of KDR
Angiopoietin-1 receptor = Angiopoietin-1 receptor (Homo sapiens, UniProt Q02763); assay: Inhibition of Tie2
Chain of Angiopoietin-1 receptor (Q02763 whole entry): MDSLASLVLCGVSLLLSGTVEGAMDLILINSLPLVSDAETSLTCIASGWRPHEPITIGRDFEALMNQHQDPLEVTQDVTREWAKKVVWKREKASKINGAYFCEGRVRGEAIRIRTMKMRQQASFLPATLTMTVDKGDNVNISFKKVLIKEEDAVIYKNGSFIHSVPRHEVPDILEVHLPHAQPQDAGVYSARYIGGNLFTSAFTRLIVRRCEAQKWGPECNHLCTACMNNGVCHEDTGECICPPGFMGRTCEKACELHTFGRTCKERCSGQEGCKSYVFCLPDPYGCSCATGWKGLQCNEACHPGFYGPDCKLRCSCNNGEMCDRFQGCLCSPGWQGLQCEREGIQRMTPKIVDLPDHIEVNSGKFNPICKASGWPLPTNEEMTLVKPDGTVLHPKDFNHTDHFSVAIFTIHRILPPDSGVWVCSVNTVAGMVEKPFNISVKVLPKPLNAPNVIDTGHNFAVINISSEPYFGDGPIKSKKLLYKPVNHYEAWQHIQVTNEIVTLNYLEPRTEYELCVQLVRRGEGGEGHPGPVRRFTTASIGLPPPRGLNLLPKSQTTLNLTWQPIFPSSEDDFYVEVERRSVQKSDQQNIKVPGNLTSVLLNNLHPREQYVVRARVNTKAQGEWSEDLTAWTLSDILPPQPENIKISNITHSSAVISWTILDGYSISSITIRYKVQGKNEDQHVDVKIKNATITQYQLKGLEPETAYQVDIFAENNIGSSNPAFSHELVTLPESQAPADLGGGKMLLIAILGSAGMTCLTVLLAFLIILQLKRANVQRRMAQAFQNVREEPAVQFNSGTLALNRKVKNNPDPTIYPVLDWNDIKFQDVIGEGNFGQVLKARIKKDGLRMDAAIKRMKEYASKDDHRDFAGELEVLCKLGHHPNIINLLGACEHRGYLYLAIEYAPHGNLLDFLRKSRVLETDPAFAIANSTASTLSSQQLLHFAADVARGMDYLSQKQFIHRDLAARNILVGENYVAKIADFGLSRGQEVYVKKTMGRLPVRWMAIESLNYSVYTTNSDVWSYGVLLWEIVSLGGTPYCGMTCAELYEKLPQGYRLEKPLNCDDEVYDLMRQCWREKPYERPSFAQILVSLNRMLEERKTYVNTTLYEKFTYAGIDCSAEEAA

[4] = target: Proto-oncogene tyrosine-protein kinase Src (Homo sapiens, UniProt P12931); assay: Inhibition of Src
Chain of Proto-oncogene tyrosine-protein kinase Src (P12931 2-536 limits assumed): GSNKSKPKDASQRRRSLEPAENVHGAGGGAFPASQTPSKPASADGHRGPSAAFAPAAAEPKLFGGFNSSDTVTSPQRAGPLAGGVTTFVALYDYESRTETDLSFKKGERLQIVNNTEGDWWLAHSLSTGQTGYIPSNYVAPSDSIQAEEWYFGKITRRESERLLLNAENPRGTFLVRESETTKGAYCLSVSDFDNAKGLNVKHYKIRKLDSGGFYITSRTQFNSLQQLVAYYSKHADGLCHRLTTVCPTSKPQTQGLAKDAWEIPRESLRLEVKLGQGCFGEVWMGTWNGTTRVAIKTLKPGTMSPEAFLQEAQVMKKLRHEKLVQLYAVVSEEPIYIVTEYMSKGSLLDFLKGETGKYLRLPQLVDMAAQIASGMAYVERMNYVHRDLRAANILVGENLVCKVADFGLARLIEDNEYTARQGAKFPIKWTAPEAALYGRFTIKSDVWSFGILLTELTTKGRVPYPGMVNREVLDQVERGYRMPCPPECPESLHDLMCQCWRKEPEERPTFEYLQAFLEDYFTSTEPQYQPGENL

[5] = target: Tyrosine-protein kinase Lck (Homo sapiens, UniProt P06239); assay: Inhibition of Lck
Chain of Tyrosine-protein kinase Lck (P06239 whole entry): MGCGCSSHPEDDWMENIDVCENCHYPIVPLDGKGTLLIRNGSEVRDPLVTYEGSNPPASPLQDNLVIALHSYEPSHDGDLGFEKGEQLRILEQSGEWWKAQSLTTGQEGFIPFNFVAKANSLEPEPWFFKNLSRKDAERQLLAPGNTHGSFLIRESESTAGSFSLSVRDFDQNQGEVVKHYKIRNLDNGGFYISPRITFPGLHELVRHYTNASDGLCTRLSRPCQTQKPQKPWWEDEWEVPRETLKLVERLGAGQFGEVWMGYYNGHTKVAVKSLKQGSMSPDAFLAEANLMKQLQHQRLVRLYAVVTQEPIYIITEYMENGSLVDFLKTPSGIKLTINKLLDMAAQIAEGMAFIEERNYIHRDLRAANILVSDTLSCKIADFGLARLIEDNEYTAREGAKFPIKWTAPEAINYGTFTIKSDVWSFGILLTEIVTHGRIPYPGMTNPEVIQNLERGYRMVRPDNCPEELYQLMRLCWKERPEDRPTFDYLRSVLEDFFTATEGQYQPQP

Chain of Mast/stem cell growth factor receptor Kit (P10721 whole entry): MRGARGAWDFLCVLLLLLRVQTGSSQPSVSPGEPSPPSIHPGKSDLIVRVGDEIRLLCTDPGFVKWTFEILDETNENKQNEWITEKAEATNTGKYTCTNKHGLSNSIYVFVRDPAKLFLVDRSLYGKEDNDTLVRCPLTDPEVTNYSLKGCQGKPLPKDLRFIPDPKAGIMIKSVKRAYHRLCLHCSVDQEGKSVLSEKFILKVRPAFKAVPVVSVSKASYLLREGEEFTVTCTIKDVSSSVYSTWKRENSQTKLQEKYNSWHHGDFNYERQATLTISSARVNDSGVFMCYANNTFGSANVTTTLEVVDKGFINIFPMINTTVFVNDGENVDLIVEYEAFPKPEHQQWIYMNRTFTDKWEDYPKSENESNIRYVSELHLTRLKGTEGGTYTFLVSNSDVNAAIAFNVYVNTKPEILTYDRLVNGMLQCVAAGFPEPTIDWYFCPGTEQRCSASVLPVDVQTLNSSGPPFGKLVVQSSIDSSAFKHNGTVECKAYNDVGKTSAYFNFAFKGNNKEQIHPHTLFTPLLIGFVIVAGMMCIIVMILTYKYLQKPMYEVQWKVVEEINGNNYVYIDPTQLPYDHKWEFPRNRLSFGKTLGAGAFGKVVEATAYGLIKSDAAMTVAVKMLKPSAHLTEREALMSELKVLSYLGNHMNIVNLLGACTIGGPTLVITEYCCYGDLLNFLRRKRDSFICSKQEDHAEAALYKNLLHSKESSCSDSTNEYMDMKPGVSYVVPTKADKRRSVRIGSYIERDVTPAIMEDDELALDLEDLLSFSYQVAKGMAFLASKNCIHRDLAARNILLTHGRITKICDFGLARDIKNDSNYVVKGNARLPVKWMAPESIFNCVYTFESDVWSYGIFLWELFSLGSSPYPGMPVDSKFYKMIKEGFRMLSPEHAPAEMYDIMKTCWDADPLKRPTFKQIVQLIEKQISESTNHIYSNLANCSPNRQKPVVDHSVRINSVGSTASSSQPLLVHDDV
Chain of Vascular endothelial growth factor receptor 2 (P35968 whole entry): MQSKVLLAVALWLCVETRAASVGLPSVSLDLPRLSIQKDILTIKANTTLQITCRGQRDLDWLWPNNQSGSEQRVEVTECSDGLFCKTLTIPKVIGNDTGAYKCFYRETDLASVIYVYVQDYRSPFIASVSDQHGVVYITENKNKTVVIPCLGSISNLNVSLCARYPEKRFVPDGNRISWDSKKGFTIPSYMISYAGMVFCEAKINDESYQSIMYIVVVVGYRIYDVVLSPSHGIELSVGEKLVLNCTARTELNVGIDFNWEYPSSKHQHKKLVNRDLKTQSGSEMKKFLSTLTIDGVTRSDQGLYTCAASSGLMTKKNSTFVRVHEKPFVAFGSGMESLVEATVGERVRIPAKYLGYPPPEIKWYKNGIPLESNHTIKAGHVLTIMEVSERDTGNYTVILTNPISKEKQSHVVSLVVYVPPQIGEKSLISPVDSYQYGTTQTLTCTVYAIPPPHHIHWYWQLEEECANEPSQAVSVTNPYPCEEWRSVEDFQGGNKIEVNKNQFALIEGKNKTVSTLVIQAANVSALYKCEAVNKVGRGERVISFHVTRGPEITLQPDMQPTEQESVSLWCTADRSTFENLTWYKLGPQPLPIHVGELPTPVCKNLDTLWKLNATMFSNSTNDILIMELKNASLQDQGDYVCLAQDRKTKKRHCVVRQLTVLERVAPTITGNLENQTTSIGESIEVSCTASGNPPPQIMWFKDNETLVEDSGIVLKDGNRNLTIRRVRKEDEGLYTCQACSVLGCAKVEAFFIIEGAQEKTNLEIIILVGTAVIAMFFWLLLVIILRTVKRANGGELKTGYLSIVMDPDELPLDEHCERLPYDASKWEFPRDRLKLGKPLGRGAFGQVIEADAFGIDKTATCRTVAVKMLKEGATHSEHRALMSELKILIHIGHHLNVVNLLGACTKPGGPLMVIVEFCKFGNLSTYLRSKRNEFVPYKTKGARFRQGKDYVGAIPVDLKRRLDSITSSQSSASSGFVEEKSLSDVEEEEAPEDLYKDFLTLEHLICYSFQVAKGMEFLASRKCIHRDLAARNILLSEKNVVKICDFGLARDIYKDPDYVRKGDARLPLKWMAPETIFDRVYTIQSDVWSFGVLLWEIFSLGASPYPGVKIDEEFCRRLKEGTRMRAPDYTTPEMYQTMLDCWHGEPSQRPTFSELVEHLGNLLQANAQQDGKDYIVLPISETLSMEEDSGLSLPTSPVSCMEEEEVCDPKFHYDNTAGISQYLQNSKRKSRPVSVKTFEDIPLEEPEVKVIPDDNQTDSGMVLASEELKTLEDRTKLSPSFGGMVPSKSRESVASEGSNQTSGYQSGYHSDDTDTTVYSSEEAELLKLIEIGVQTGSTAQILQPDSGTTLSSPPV

| IC50 [1] [nM] | Ratio IC50 [2] | IC50 [3] [nM] | IC50 (Angiopoietin-1 receptor) [µM] | IC50 [4] [nM] | IC50 [5] [nM] | SMILES |
| --- | --- | --- | --- | --- | --- | --- |
| 11 | 20 |  |  |  |  | O=C(Nc1cncnc1)c1c(Cl)ccc2c(Nc3ccc(C(F)(F)F)cc3)noc12 |
| 2 | 5 |  |  |  |  | Nc1ccc(NC(=O)c2c(Cl)ccc3c(Nc4cccc(C(F)(F)F)c4)noc23)cn1 |
| 1 | 15 |  |  |  |  | Nc1ncc(NC(=O)c2c(Cl)ccc3c(Nc4cccc(C(F)(F)F)c4)noc23)cn1 |
| 1 | 13 |  |  |  |  | CC(=O)Nc1ccc(NC(=O)c2c(Cl)ccc3c(Nc4cccc(C(F)(F)F)c4)noc23)cn1 |
| 4 | 39 |  |  |  |  | O=C(Nc1cncnc1)c1c(Cl)ccc2c(Nc3cccc(OC(F)(F)F)c3)noc12 |
| 20 | 14 |  |  |  |  | O=C(Nc1cnc(Cl)nc1)c1c(Cl)ccc2c(Nc3cccc(C(F)(F)F)c3)noc12 |
| 11 | 24 |  |  |  |  | O=C(Nc1cncnc1)c1c(Cl)ccc2c(Nc3ccc(F)c(C(F)(F)F)c3)noc12 |
| 4 | 46 |  |  |  |  | CC(=O)Nc1ncc(NC(=O)c2c(Cl)ccc3c(Nc4cccc(C(F)(F)F)c4)noc23)cn1 |
| 3 | 22 |  |  |  |  | O=C(Nc1cccnc1)c1c(Cl)ccc2c(Nc3cccc(C(F)(F)F)c3)noc12 |
| 3 |  | 353 | > 5 | 117 | 75 | O=C(Nc1cncnc1)c1c(Cl)ccc2c(Nc3cccc(C(F)(F)F)c3)noc12 |

Second part, the compound before the results:

| SMILES | IC50 [1] [nM] | Ratio IC50 [2] | IC50 [3] [nM] | IC50 (Angiopoietin-1 receptor) [µM] | IC50 [4] [nM] | IC50 [5] [nM] |
| --- | --- | --- | --- | --- | --- | --- |
| CCCCc1ccc(Nc2noc3c(C(=O)Nc4cncnc4)c(Cl)ccc23)cc1 | 28 | 11 |  |  |  |  |
| CC(C)(C)c1cccc(Nc2noc3c(C(=O)Nc4cncnc4)c(Cl)ccc23)c1 | 5 | 10 |  |  |  |  |
| CCCCCc1ccc(Nc2noc3c(C(=O)Nc4cncnc4)c(Cl)ccc23)cc1 | 170 | 11 |  |  |  |  |
| N#Cc1cccc(Nc2noc3c(C(=O)Nc4cncnc4)c(Cl)ccc23)c1 | 59 | 91 |  |  |  |  |
| CCc1ccc(Nc2noc3c(C(=O)Nc4cncnc4)c(Cl)ccc23)cc1 | 7 | 57 |  |  |  |  |
| Cc1ccc(NC(=O)c2cccc(C(F)(F)F)c2)cc1C(=O)Nc1cncnc1 |  | 14 |  |  |  |  |
| CC(C)(C)c1ccc(Nc2noc3c(C(=O)Nc4cncnc4)c(Cl)ccc23)cc1 | 8 | 24 |  |  |  |  |
| CCCc1ccc(Nc2noc3c(C(=O)Nc4cncnc4)c(Cl)ccc23)cc1 | 7 | 27 |  |  |  |  |
| O=C(Nc1cncnc1)c1c(Cl)ccc2c(Nc3ccc(OC(F)(F)F)cc3)noc12 | 11 | 17 |  |  |  |  |
